Reference: PMC4014698 (Pharmaceuticals, 2014)
In brackets after ≈: the same amount, converted by molar mass. Non-standard residues stand in square brackets, D forms with d. Residues, ends and D or L forms follow the SMILES beside them.

Key:
human erythrocytes [1] = assay: Hemolytic activity (HC50); format: cell-based; conditions: 1 hour incubation at 37 °C; human red blood cells; Figure 8, 100% control 0.1% Triton-X 100
human erythrocytes [2] = assay: Hemolytic activity (HC50); format: cell-based; conditions: for Hemolytic activity HC50: concentration giving 50% hemolysis after 18 h at 37 °C, 1% human erythrocytes in PBS pH 7.4, hemoglobin release at 570 nm, 100% control water (Figure 7)
Description: Hemoglobin release was determined spectrophotometrically at 570 nm.
From these plots, the HC50 values, the peptide concentration that produces 50% hemolysis of human red blood cells after 18 hours in the standard microtiter dilution method was determined.

P. aeruginosa strain PAK = conditions: Mueller-Hinton medium, 37 °C, 24 h, 5 × 10^5 CFU/mL; three sets of determinations
Source text: (§1) P. aeruginosa strains used are as follows: strain PAO1 was isolated from a human wound in 1955 in Australia; strain WR5 was isolated from a burn patient at Walter Reed Army Hospital, Washington, DC, USA, in 1976 and is a natural toxA^− mutant, but is virulent in experimental mouse models; strain PAK was originally isolated at Memorial University, St. John’s, Newfoundland, Canada, and is widely used in the analysis of pili; strain PA14 was originally isolated as a clinical isolate in 1995 at the Massachusetts General Hospital, Boston, MA, USA and is virulent in a variety of plant and animal models of infection; strain M2 was originally isolated in 1975 from the gastrointestinal tract of a healthy CF1 mouse, University of Cincinnati College of Medicine, and Shriners Burns Institute, Cincinnati, OH, USA and is virulent in a burn mouse model of P. aeruginosa infection; and strain CP204 was isolated from a cystic fibrosis patient in 1989 at the National Jewish Medical and Research Center, Denver, CO, USA. All strains have been maintained at −80 °C in the laboratory of Michael Vasil, University of Colorado, School of Medicine.
(§2) The minimal inhibitory concentration (MIC) is defined as the lowest peptide concentration that inhibited bacterial growth. MICs were measured by a standard microtiter dilution method in Mueller Hinton (MH) medium. Briefly, cells were grown overnight at 37 °C in MH broth and were diluted in the same medium. […] The plates were incubated at 37 °C for 24 h, and the MICs were determined.

P. aeruginosa strain WR5 = conditions: source burn patient; Mueller-Hinton medium, 37 °C, 24 h, 5 × 10^5 CFU/mL; three sets of determinations
Source text: as §1, §2

[3] = system: P. aeruginosa strain CP204; conditions: source cystic fibrosis patient; Mueller-Hinton medium, 37 °C, 24 h, 5 × 10^5 CFU/mL; three sets of determinations
Source text: as §1, §2

[4] = system: P. aeruginosa strain PAO1; conditions: source human wound; Mueller-Hinton medium, 37 °C, 24 h, 5 × 10^5 CFU/mL; three sets of determinations
Source text: as §1, §2

[5] = system: P. aeruginosa strain PA14; conditions: Mueller-Hinton medium, 37 °C, 24 h, 5 × 10^5 CFU/mL; three sets of determinations
Source text: as §1, §2

P. aeruginosa strain M2 = conditions: source burn mouse model; Mueller-Hinton medium, 37 °C, 24 h, 5 × 10^5 CFU/mL; three sets of determinations
Source text: as §1, §2

A. baumannii strain 649 = assay: MIC, microtiter dilution; format: cell-based, Acinetobacter baumannii; conditions: source blood; Mueller-Hinton medium, 37 °C, 24 h, 5 × 10^5 CFU/mL; three sets of determinations
Source text: (§3) All the A. baumannii strains used in this study were (1) obtained from the collection of Dr. Anthony A. Campagnari at the University of Buffalo and originally isolated from different patients and organs/tissues (strain 649, blood; strain 689, groin; strain 759, gluteus; strain 821, urine; strain 884, axilla; strain 899, perineum; strain 964, throat; strain 985, pleural fluid and strain 1012, sputum); (2) were purchased from the American Type Culture Collection (ATCC, Manassas, VA, USA) (strain ATCC 17978, fatal meningitis; and strain ATCC 19606, urine).
(§4) The minimal inhibitory concentration (MIC) is defined as the lowest peptide concentration that inhibited bacterial growth. MICs were measured by a standard microtiter dilution method in Mueller Hinton (MH) medium. Briefly, cells were grown overnight at 37 °C in MH broth and were diluted in the same medium. Serial dilutions of the peptides were added to the microtiter plates in a volume of 50 µL, followed by the addition of 50 µL of bacteria to give a final inoculum of 5 × 10^5 colony-forming units (CFU)/mL. The plates were incubated at 37 °C for 24 h, and the MICs were determined.

A. baumannii strain 884 = assay: MIC, microtiter dilution; format: cell-based, Acinetobacter baumannii; conditions: source axilla; Mueller-Hinton medium, 37 °C, 24 h, 5 × 10^5 CFU/mL; three sets of determinations
Source text: as §3, §4

A. baumannii strain 759 = assay: MIC, microtiter dilution; format: cell-based, Acinetobacter baumannii; conditions: source gluteus; Mueller-Hinton medium, 37 °C, 24 h, 5 × 10^5 CFU/mL; three sets of determinations
Source text: as §3, §4

A. baumannii strain 821 = assay: MIC, microtiter dilution; format: cell-based, Acinetobacter baumannii; conditions: source urine; Mueller-Hinton medium, 37 °C, 24 h, 5 × 10^5 CFU/mL; three sets of determinations
Source text: as §3, §4

[6] = system: A. baumannii strain ATCC 19606; assay: MIC, microtiter dilution; format: cell-based, Acinetobacter baumannii; conditions: source urine; Mueller-Hinton medium, 37 °C, 24 h, 5 × 10^5 CFU/mL; three sets of determinations
Source text: as §3, §4

[7] = system: Pseudomonas aeruginosa (6 different isolates); conditions: geometric mean of the MIC values from 6 different isolates of P. aeruginosa; Table 3B
Source text: as §1, §2
Geometric mean of MIC values was calculated to provide an overall view of antimicrobial activity of different analogs.

[8] = system: Acinetobacter baumannii (11 different isolates); format: cell-based; conditions: geometric mean of the MIC values from 11 different isolates of A. baumannii; Table 3A
Source text: as §3, §4
Antibacterial activities against six strains of P. aeruginosa and eleven strains of A. baumannii are compared in Table 3. Geometric mean of MIC values was calculated to provide an overall view of antimicrobial activity of different analogs. It is clear that our peptides were effective in killing the microorganisms tested. Compared to a dramatic reduction in hemolytic activity, antibacterial activity of D-piscidin 1 and D-dermaseptin S4 analogs against eleven strains of A. baumannii maintained the same level (within 2-fold) upon the substitution of “specificity determinant(s)” (Table 3).

A. baumannii strain 899 = format: cell-based, Acinetobacter baumannii; conditions: source perineum; Mueller-Hinton medium, 37 °C, 24 h, 5 × 10^5 CFU/mL; three sets of determinations
Source text: as §3, §4

A. baumannii strain 964 = format: cell-based, Acinetobacter baumannii; conditions: source throat; Mueller-Hinton medium, 37 °C, 24 h, 5 × 10^5 CFU/mL; three sets of determinations
Source text: as §3, §4

[9] = system: A. baumannii strain ATCC 17978; format: cell-based, Acinetobacter baumannii; conditions: ATCC 17978, 24 h
Source text: as §3, §4

A. baumannii strain 1012 = format: cell-based, Acinetobacter baumannii; conditions: source sputum; Mueller-Hinton medium, 37 °C, 24 h, 5 × 10^5 CFU/mL; three sets of determinations
Source text: as §3, §4

A. baumannii strain 985 = format: cell-based, Acinetobacter baumannii; conditions: source pleural fluid; Mueller-Hinton medium, 37 °C, 24 h, 5 × 10^5 CFU/mL; three sets of determinations
Source text: as §3, §4

A. baumannii strain 689 = format: cell-based, Acinetobacter baumannii; conditions: source groin; Mueller-Hinton medium, 37 °C, 24 h, 5 × 10^5 CFU/mL; three sets of determinations
Source text: as §3, §4

SMILES	MIC PAK (P. aeruginosa strain PAK)	MIC WR5 (P. aeruginosa strain WR5)	MIC CP204 [3]	MIC PAO1 [4]	MIC PA14 [5]	MIC M2 (P. aeruginosa strain M2)	MIC 649 (A. baumannii strain 649)	MIC 884 (A. baumannii strain 884)	MIC 759 (A. baumannii strain 759)	MIC 821 (A. baumannii strain 821)	MIC ATCC19606 [6]	Hemolytic activity HC50 (human erythrocytes [2])	MIC GM [7]	MIC GM [8]	MIC 899 (A. baumannii strain 899)	MIC 964 (A. baumannii strain 964)	MIC ATCC17978 [9]	MIC 1012 (A. baumannii strain 1012)	MIC 985 (A. baumannii strain 985)	MIC 689 (A. baumannii strain 689)	also measured
CC[C@@H](C)[C@@H](NC(=O)[C@H]1CCCN1C(=O)[C@@H](CCCNC(=N)N)NC(=O)[C@@H](Cc1ccccc1)NC(=O)[C@H](NC(=O)[C@@H](Cc1c[nH]cn1)NC(=O)[C@@H](Cc1c[nH]cn1)NC(=O)[C@@H](Cc1ccccc1)NC(=O)[C@H](N)Cc1ccccc1)[C@H](C)CC)C(=O)N[C@@H](C(=O)N[C@H](Cc1c[nH]cn1)C(=O)N[C@@H](C(=O)NCC(=O)N[C@H](CCCCN)C(=O)N[C@@H](C(=O)N[C@@H](C(=O)N[C@H](Cc1c[nH]cn1)C(=O)N[C@H](CCCNC(=N)N)C(=O)N[C@H](CC(C)C)C(=O)N[C@@H](C(=O)N[C@@H](C(=O)NCC(N)=O)[C@H](C)O)C(C)C)[C@H](C)CC)[C@H](C)O)C(C)C)C(C)C [D-Piscidin 1 G8P] (H-[dF][dF][dH][dH][dI][dF][dR][dP][dI][dV][dH][dV]G[dK][dT][dI][dH][dR][dL][dV][dT]G-NH2)																					Hemolytic activity HC50, 1 hour (human erythrocytes [1]): 55 µM; Hemolytic activity HC50, 18 hours (Figure 8 comparison) (human erythrocytes [2]; 18 hours at 37 °C, human red blood cells, Figure 8, 100% control 0.1% Triton-X 100): 8 µM
CC[C@@H](C)[C@@H](NC(=O)CNC(=O)[C@@H](CCCNC(=N)N)NC(=O)[C@@H](Cc1ccccc1)NC(=O)[C@H](NC(=O)[C@@H](Cc1c[nH]cn1)NC(=O)[C@@H](Cc1c[nH]cn1)NC(=O)[C@@H](Cc1ccccc1)NC(=O)[C@H](N)Cc1ccccc1)[C@H](C)CC)C(=O)N[C@@H](C(=O)N[C@H](Cc1c[nH]cn1)C(=O)N[C@H](CCCCN)C(=O)NCC(=O)N[C@H](CCCCN)C(=O)N[C@@H](C(=O)N[C@@H](C(=O)N[C@H](Cc1c[nH]cn1)C(=O)N[C@H](CCCNC(=N)N)C(=O)N[C@H](CC(C)C)C(=O)N[C@@H](C(=O)N[C@@H](C(=O)NCC(N)=O)[C@H](C)O)C(C)C)[C@H](C)CC)[C@H](C)O)C(C)C [D-Piscidin 1 V12K] (H-[dF][dF][dH][dH][dI][dF][dR]G[dI][dV][dH][dK]G[dK][dT][dI][dH][dR][dL][dV][dT]G-NH2)	6.0 µM (≈ 15.6 µg/mL)	12.0 µM (≈ 31.2 µg/mL)	24.0 µM (≈ 62.4 µg/mL)	24.0 µM (≈ 62.4 µg/mL)	24.0 µM (≈ 62.4 µg/mL)	24.0 µM (≈ 62.4 µg/mL)	3.0 µM (≈ 7.8 µg/mL)	3.0 µM (≈ 7.8 µg/mL)	3.0 µM (≈ 7.8 µg/mL)	3.0 µM (≈ 7.8 µg/mL)	3.0 µM (≈ 7.8 µg/mL)	35 µM	17.0 µM (≈ 44.2 µg/mL)	2.8 µM (≈ 7.28 µg/mL)	3.0 µM (≈ 7.8 µg/mL)	3.0 µM (≈ 7.8 µg/mL)	3.0 µM (≈ 7.8 µg/mL)	3.0 µM (≈ 7.8 µg/mL)	1.5 µM (≈ 3.9 µg/mL)	3.0 µM (≈ 7.8 µg/mL)	
CC[C@@H](C)[C@@H](NC(=O)CNC(=O)[C@@H](CCCNC(=N)N)NC(=O)[C@@H](Cc1ccccc1)NC(=O)[C@H](NC(=O)[C@@H](Cc1c[nH]cn1)NC(=O)[C@@H](Cc1c[nH]cn1)NC(=O)[C@@H](Cc1ccccc1)NC(=O)[C@H](N)Cc1ccccc1)[C@H](C)CC)C(=O)N[C@@H](C(=O)N[C@H](Cc1c[nH]cn1)C(=O)N[C@@H](C(=O)NCC(=O)N[C@H](CCCCN)C(=O)N[C@@H](C(=O)N[C@@H](C(=O)N[C@H](Cc1c[nH]cn1)C(=O)N[C@H](CCCNC(=N)N)C(=O)N[C@H](CC(C)C)C(=O)N[C@@H](C(=O)N[C@@H](C(=O)NCC(N)=O)[C@H](C)O)C(C)C)[C@H](C)CC)[C@H](C)O)C(C)C)C(C)C [D-Piscidin 1] (H-[dF][dF][dH][dH][dI][dF][dR]G[dI][dV][dH][dV]G[dK][dT][dI][dH][dR][dL][dV][dT]G-NH2)	12.2 µM (≈ 31.4 µg/mL)	12.2 µM (≈ 31.4 µg/mL)	24.3 µM (≈ 62.5 µg/mL)	24.3 µM (≈ 62.5 µg/mL)	24.3 µM (≈ 62.5 µg/mL)	24.3 µM (≈ 62.5 µg/mL)	3.0 µM (≈ 7.71 µg/mL)	3.0 µM (≈ 7.71 µg/mL)	3.0 µM (≈ 7.71 µg/mL)	3.0 µM (≈ 7.71 µg/mL)	3.0 µM (≈ 7.71 µg/mL)	1.8 µM	19.3 µM (≈ 49.6 µg/mL)	2.8 µM (≈ 7.2 µg/mL)	3.0 µM (≈ 7.71 µg/mL)	3.0 µM (≈ 7.71 µg/mL)	3.0 µM (≈ 7.71 µg/mL)	6.1 µM (≈ 15.7 µg/mL)	1.5 µM (≈ 3.86 µg/mL)	1.5 µM (≈ 3.86 µg/mL)	Hemolytic activity Fold improvement in HC50 (human erythrocytes [2]): 1.0 fold
